Measured values: patent US11091450B2, “Crystal of a caspase inhibitor” (Chia Tai Tianqing Pharmaceutical Group Co., Ltd., priority 2018, dated 2021)
Converted amounts (≈) assume the structure as drawn. Blank lines part the entries; values can stand above or below the compound they belong to.

Legend:
Caspase-8 = biological target: T1, Caspase-8 (Homo sapiens, UniProt Q14790); assay: Caspase-8 Inhibitor Screening Kit (BioVision), fluorogenic substrate; type: biochemical; conditions: 30 min preincubation at 37° C., substrate 50 μM; read-out: Caspase-8 enzymatic activity (IC50)
T1 construct: purchased BioVision K158-100
Method: (§1) Caspase Inhibitor Screening Kit for BioVision was used in this experiment to test the inhibitory activity of the test compound on Caspase.
(§2) • 1) Kit: • Caspase-1 Inhibitor Screening Kit (BioVision #K151-100) • Caspase-3 Inhibitor Screening Kit (BioVision #K153-100) • Caspase-8 Inhibitor Screening Kit (BioVision #K158-100) • Wherein, each caspase enzymatic experiment uses the reagents in corresponding kit thereof. Each enzyme was dissolved in 550 μl of the corresponding 2× reaction buffer, sub-packed and stored at −80° C., respectively. • 2) Black 384-well plate (PerkinElmer #6007279) • 3) Instrument: Multi-function microplate reader Molecular Devices (Model: SpectraMax M2e) Experimental Method: • 1) The compound of formula I-A was diluted to a 200* test concentration with DMSO via the multiple dilution, then to a 2* test concentration with ddH2O, and added to a 384-well experimental plate at 12.5 μl per well. […] After the substrate was added, the 384-well experimental plate was incubated at 37° C. for 30 minutes. • 4) The fluorescence intensity (excitation light wavelength was 400 nm, emission light wavelength was 505 nm) was measured by using a multi-function microplate reader. Fluorescence intensity was used to calculate the inhibitory effect of the compounds on Caspase. […]

Caspase-3 = biological target: T2, Caspase-3 (Homo sapiens, UniProt P42574); assay: Caspase-3 Inhibitor Screening Kit (BioVision), fluorogenic substrate; type: biochemical; conditions: 30 min preincubation at 37° C., substrate 50 μM; read-out: Caspase-3 enzymatic activity (IC50)
T2 construct: purchased BioVision K153-100
T2 sequence (P42574 29-175 limits assumed): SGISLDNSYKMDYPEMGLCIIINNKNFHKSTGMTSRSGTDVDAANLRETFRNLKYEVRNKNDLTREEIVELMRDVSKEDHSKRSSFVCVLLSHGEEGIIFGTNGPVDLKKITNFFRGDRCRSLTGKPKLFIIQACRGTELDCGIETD
T2 sequence (P42574 176-277 limits assumed): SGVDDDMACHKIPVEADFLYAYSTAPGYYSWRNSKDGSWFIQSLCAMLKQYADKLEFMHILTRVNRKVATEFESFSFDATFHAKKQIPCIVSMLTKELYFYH
Method: as §1, §2

Caspase-1 = biological target: T3, Caspase-1 (Homo sapiens, UniProt P29466); assay: Caspase-1 Inhibitor Screening Kit (BioVision), fluorogenic substrate; type: biochemical; conditions: 30 min preincubation at 37° C., substrate 50 μM; read-out: Caspase-1 enzymatic activity (IC50)
T3 construct: purchased BioVision K151-100
T3 sequence (P29466 120-297 limits assumed): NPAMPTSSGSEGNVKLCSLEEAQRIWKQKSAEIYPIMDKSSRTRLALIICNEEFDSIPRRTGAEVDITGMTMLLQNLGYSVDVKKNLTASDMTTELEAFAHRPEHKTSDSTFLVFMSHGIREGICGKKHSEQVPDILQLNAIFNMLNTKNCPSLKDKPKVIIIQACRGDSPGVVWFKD
T3 sequence (P29466 317-404 limits assumed): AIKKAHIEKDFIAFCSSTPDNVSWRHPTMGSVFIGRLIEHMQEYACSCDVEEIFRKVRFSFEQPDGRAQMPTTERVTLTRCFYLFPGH
Method: as §1, §2

[1] = Solubility test of crystal IV in different pH medium solutions; type: physicochemical; conditions: thermodynamic from solid, 37° C.
Method: 2 ml of pH medium solutions were transferred into 4 ml glass bottle respectively, and then 8 mg of crystal IV of the compound of formula I-A was added thereto. It was stirred and heated on a magnetic stirrer, and the temperature was kept at 37° C. After 4 hours and 24 hours, 1 mL of sample was taken and centrifuged rapidly, respectively. The pH value of the supernatant was determined, and the supernatant was diluted with diluent. The concentration was determined by HPLC.

[2] = Solid stability test of crystal IV (temperature, humidity, light; HPLC impurities); type: physicochemical
Method: 8 mg of crystal IV of the compound of formula I-A was taken, weighed accurately, placed in the sample vial and spread into a thin layer. The samples at day 0 were sealed with the bottle cap and further sealed with the sealing film, followed by storing in the refrigerator at −20° C. The stability of the samples was tested under 60° C., 92.5% RH, 25° C./60% RH, 40° C./75% RH, 60° C./75% RH and light conditions, respectively.
Analysis method: Agilent 1260 High Performance Liquid Chromatography equipped with DAD detector or Waters 2695 High Performance Liquid Chromatography equipped with PDA detector was used; chromatographic column: Waters Xselect CSH C18 (4.6 mm×150 mm, 3.5 μm), column temperature: 40° C., flow rate: 1.0 ml/min, detection wavelength: 215 nm, injection volume: 10 μL, sample concentration: 0.5 mg/mL, diluent: methanol, and the gradient of mobile phases in Table 9 was used for analysis.

[3] = aqueous buffer, pH = 4.5 Buffer, supernatant pH 4.67
[4] = aqueous buffer, pH = 5.5 Buffer, supernatant pH 5.55
[5] = aqueous buffer, pH = 6.0 Buffer, supernatant pH 6.04

T1 sequence (Q14790 217-374 limits assumed): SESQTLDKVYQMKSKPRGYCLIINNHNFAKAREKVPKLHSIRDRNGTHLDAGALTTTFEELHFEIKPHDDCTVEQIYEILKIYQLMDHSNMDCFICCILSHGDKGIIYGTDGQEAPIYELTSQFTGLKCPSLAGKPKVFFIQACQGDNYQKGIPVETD
T1 sequence (Q14790 385-479 limits assumed): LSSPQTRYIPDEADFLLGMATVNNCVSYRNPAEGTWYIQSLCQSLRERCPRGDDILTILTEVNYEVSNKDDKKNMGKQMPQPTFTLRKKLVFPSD

IC50 (Caspase-8): 0.0103 µM
IC50 (Caspase-3): 0.013 µM
IC50 (Caspase-1): 0.0046 µM
Compound: C[C@H](NC(=O)c1cc(-c2ccccc2Cl)on1)C(=O)N[C@@H](CC(=O)O)C(=O)COc1c(F)c(F)cc(F)c1F [Compound of formula I-A, (S)-3-((S)-2-(5-(2-chlorophenyl)isoxazol-3-carboxamido)propionamido)-4-oxo-5-(2,3,5,6-tetrafluorophenoxy)pentanoic acid]

solubility at 4 h ([1]; 0.01 N HCl buffer, simulated gastric fluid, 0.01N of HCl Buffer, supernatant pH 2.01): 0.005 mg/mL (≈ 8.74 µM)
solubility at 24 h ([1]; 0.01 N HCl buffer, simulated gastric fluid, 0.01N of HCl Buffer, supernatant pH 2.07): 0.006 mg/mL (≈ 10.5 µM)
solubility at 4 h ([1]; 0.1 N HCl buffer, simulated gastric fluid, 0.1N of HCl Buffer, supernatant pH 1.07): 0.005 mg/mL (≈ 8.74 µM)
solubility at 24 h ([1]; 0.1 N HCl buffer, simulated gastric fluid, 0.1N of HCl Buffer, supernatant pH 1.11): 0.006 mg/mL (≈ 10.5 µM)
solubility at 4 h ([1]; aqueous buffer, pH = 3.8 Buffer, supernatant pH 3.97): 0.007 mg/mL (≈ 12.2 µM)
solubility at 24 h ([1]; aqueous buffer, pH = 3.8 Buffer, supernatant pH 3.99): 0.008 mg/mL (≈ 14 µM)
solubility at 4 h [1, 3]: 0.016 mg/mL (≈ 28 µM)
solubility at 24 h [1, 3]: 0.016 mg/mL (≈ 28 µM)
solubility at 4 h [1, 4]: 0.268 mg/mL (≈ 469 µM)
solubility at 24 h [1, 4]: 0.254 mg/mL (≈ 444 µM)
solubility at 4 h [1, 5]: 0.372 mg/mL (≈ 651 µM)
solubility at 24 h [1, 5]: 0.34 mg/mL (≈ 595 µM)
solubility at 4 h ([1]; aqueous buffer, pH = 6.8 Buffer, supernatant pH 6.71): 0.775 mg/mL (≈ 1360 µM)
solubility at 4 h ([1]; aqueous buffer, pH = 7.4 Buffer, supernatant pH 7.28): 1.7 mg/mL (≈ 2970 µM)
solubility at 24 h ([1]; aqueous buffer, pH = 7.4 Buffer, supernatant pH 7.24): 1.62 mg/mL (≈ 2830 µM)
solubility at 24 h ([1]; pH 6.7, aqueous buffer, pH = 6.8 Buffer, supernatant pH 6.70): 0.702 mg/mL (≈ 1230 µM)
solubility at 4 h ([1]; Water, supernatant pH 7.83): 0.339 mg/mL (≈ 593 µM)
solubility at 24 h ([1]; Water, supernatant pH 7.34): 0.266 mg/mL (≈ 465 µM)
Appearance ([2]; 25° C./60% RH, 10 days): White solid powder
Total Impurities (%) ([2]; 25° C./60% RH, 10 days): 0.20%
Property ([2]; 25° C./92.5% Relative Humidity (Exposure)): White solid
Appearance ([2]; 40° C./75% RH, 10 days): White solid powder
Total Impurities (%) ([2]; 40° C./75% RH, 10 days): 0.19%
Property ([2]; 60° C. (Exposure)): White solid
Appearance ([2]; 60° C./75% RH, 10 days): White solid powder
Total Impurities (%) ([2]; 60° C./75% RH, 10 days): 0.48%
Property ([2]; Light): White solid
Crystal ([2]; crystal form after 25° C./60% RH, 10 days): Crystal IV
Crystal ([2]; crystal form after 25° C./92.5% Relative Humidity (Exposure)): Crystal IV
Crystal ([2]; crystal form after 40° C./75% RH, 10 days): Crystal IV
Crystal ([2]; crystal form after 60° C. (Exposure)): Crystal IV
Crystal ([2]; crystal form after 60° C./75% RH, 10 days): Crystal IV
Crystal ([2]; crystal form after Light): Crystal IV
total impurities produced ([2]; high temperature and high humidity conditions (summary of Table 10)): ≤ 0.5%
stability under high temperature and high humidity conditions ([2]; summary of Table 10): stable
hygroscopicity ([2]; summary of Table 11): low hygroscopicity
stability under high temperature and light conditions ([2]; summary of Table 11): good stability
Compound: C[C@H](NC(=O)c1cc(-c2ccccc2Cl)on1)C(=O)N[C@@H](CC(=O)O)C(=O)COc1c(F)c(F)cc(F)c1F [crystal IV, (S)-3-((S)-2-(5-(2-chlorophenyl)isoxazol-3-carboxamido)propionamido)-4-oxo-5-(2,3,5,6-tetrafluorophenoxy)pentanoic acid]
